According to patent US10278942B2 (PELOTON THERAPEUTICS, INC., priority 2015, dated 2019):
Where two headings read alike, the source gives them in different places.

Assays:
786-O-Hif-Luc cells = experiment: Luciferase Assay (HIF responsive elements reporter)
Method: A pool of infected cells were then selected against 2 μg/mL of puromycin (P8833, Sigma) for 10 days followed by limited dilution to select single clones. […] Each concentration was tested in triplicate. After about 24 hours, luciferase activity was determined using ONE-Glo Luciferase Assay Reagent (E6110, Promega) following the manufacturer's recommended procedure. EC50 were calculated using Dotmatics software.

786-O cells = experiment: VEGF ELISA Assay; format: cell-based; conditions: Homo sapiens, 786-0
Method: Each concentration was plated in duplicate. About 20 hours later, medium was removed by suction and each well was supplied with 180 μL of growth medium. About 20 μl freshly-made 10× compound stocks were added to each well. […] The EC50 was calculated by GraphPad Prism using the dose-response-inhibition (four parameter) equation. The cell-seeded plate was then subjected to CellTiter-Glo luminescence cell viability assay (Promega) by adding 50 μL of Celltiter Glo reagent into each well and shaking the plate for 8 minutes at 550 rpm (Thermomixer R, Eppendorf) then the luminescence signal immediately read in a plate reader (3 second delay, 0.5 second/well integration time, Synergy 2 multi Detection Microplate reader).

[1] = molecular target: T1, HIF-2α HIS TAG-PASB Domain (Homo sapiens, UniProt Q99814); experiment: HIF-2α Scintillation Proximity Assay (SPA); format: binding
T1 construct: 100 nM HIF-2α HIS TAG-PASB Domain
T1 sequence (Q99814 240-350 limits assumed): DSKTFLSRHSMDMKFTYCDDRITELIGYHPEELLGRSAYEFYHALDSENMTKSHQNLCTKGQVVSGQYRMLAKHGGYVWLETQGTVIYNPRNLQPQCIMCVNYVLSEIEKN
Procedure, shortened: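 IC50 values rest on percent inhibition, where the sample signal is scaled between high and low controls. Wells contain about 100 μL: compound dispensed as 2 μL of DMSO solution, 88 μL protein-probe mix and 10 μL of beads.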

[2] = read-out: Mean Luciferase EC50 (nM), 786-O-Hif-Luc cells
[3] = read-out: Scintillation Proximity Assay IC50
[4] = Scintillation Proximity Assay IC50 (nM)

Row | Compound | EC50 (786-O-Hif-Luc cells; [2]) [nM] | EC50 (786-O cells) [nM] | IC50 [1, 3] [nM] | IC50 [1, 4] [nM] | EC50 (786-O-Hif-Luc cells; read-out: Mean Luciferase EC50 (nM)) [nM]
1 | N#CC1(COc2ccc(S(=O)(=O)C(F)(F)F)c3c2CC(F)(F)[C@H]3O)CC1 [Compound 658] | < 50 | < 50 | < 50 | – | –
2 | O=S1(=O)c2ccc(Oc3cncc(Cl)c3)c(Br)c2[C@@H](O)C1(F)F [Compound 421] | 50 to 249 | 50 to 249 | 50 to 249 | – | –
3 | N#Cc1cc(F)cc(Oc2ccc(S(=O)(=O)C(F)F)cc2Br)c1 [Compound 132] | > 1000 | 250 to 1000 | 250 to 1000 | – | –
4 | Cc1cc(C#N)cc(Oc2ccc(S(=O)(=O)CF)c3c2CC(F)(F)[C@H]3O)c1 [Compound 166] | < 50 | 50 to 249 | < 50 | – | –
5 | O=S1(=O)c2ccc(Oc3cc(F)cc(Cl)c3)c(C(F)(F)F)c2C(O)C1(F)F (stereo not drawn) [Compound 360] | – | 50 to 249 | – | < 50 | 50 to 249
6 | N#Cc1cncc(Oc2ccc(C(F)(F)F)c3c2CC(F)(F)[C@H]3O)c1 [Compound 303] | < 50 | 50 to 249 | < 50 | – | –
7 | CS(=O)(=O)c1ccc(OC2CC(F)(F)C2)c2c1[C@H](O)C(F)(F)[C@@H]2F [Compound 574, (1S,3R)-4-(3,3-difluorocyclobutoxy)-2,2,3-trifluoro-7-(methylsulfonyl)-2,3-dihydro-1H-inden-1-ol] | 50 to 249 | 50 to 249 | < 50 | – | –
8 | O=S(=O)(c1ccc(OC2CC(F)(F)C2)c2c1[C@H](O)C(F)(F)C2)C(F)(F)F [Compound 572] | < 50 | < 50 | < 50 | – | –
9 | N#Cc1cc(F)cc(Oc2ccc(S(=N)(=O)C(F)(F)F)c3c2CC(F)(F)[C@H]3O)c1 (stereo partly drawn) [Compound 305] | < 50 | < 50 | < 50 | – | –
10 | CS(=O)(=O)c1ccc(O[C@H]2C[C@H](F)C2)c2c1[C@H](O)C(F)(F)[C@@H]2F [Compound 736] | 50 to 249 | 50 to 249 | < 50 | – | –
11 | O=S(=O)(c1ccc(OC2CCOCC2)c2c1[C@H](O)C(F)(F)C2)C(F)(F)F [Compound 744] | < 50 | < 50 | < 50 | – | –
12 | O=S(=O)(CF)c1ccc(OC2CC(F)(F)C2)c2c1[C@H](O)[C@H](F)[C@@H]2F [Compound 578] | 50 to 249 | 50 to 249 | < 50 | – | –
13 | CS(=O)(=NC#N)c1ccc(Oc2cc(F)cc(F)c2)c2c1C(O)C(F)(F)C2 (stereo not drawn) [Compound 191] | 50 to 249 | 50 to 249 | < 50 | – | –
14 | O=S(=O)(CF)c1ccc(Oc2cc(F)cc(F)c2)c2c1[C@H](O)CC2 [Compound 60] | 50 to 249 | < 50 | < 50 | – | –
15 | N#Cc1c(S(=O)(=O)C(F)(F)F)ccc(Oc2cc(F)cc(Cl)c2)c1Br [Compound 98] | > 1000 | > 1000 | < 50 | – | –
16 | CS(=O)(=O)c1ccc(Oc2cc(F)cc(F)c2)c2c1[C@H](O)C(F)(F)C2 [Compound 159] | < 50 | < 50 | < 50 | – | –
17 | CS(=O)(=NC#N)c1ccc(Oc2cc(F)cc(C#N)c2)c2c1[C@H](O)C(F)(F)C2 (stereo partly drawn) [Compound 245] | 50 to 249 | 50 to 249 | < 50 | – | –
18 | CC(C)(C#N)COc1ccc(S(=O)(=O)C(F)(F)F)c2c1CC(F)(F)C2O (stereo not drawn) [Compound 610] | 50 to 249 | 50 to 249 | < 50 | – | –
19 | O=[N+]([O-])c1c(Oc2cc(F)cc(Cl)c2)ccc(C(F)(F)F)c1Cl [Compound 203] | 250 to 1000 | 250 to 1000 | 50 to 249 | – | –
20 | O=S(=O)(c1ccc(Oc2cc(F)cc(Cl)c2)c2c1C(O)C(F)(F)C2)C(F)F (stereo not drawn) [Compound 8] | < 50 | < 50 | – | < 50 | –
21 | O[C@H]1c2c(C(F)(F)F)ccc(OCC(F)F)c2CC1(F)F [Compound 579] | < 50 | < 50 | < 50 | – | –
22 | Cc1c(S(=O)(=O)C(F)F)ccc(Oc2cc(F)cc(F)c2)c1C#N [Compound 34] | 250 to 1000 | 250 to 1000 | < 50 | – | –
23 | N#Cc1cncc(Oc2ccc(S(=O)(=O)C(F)(F)F)c3c2C[C@@H](F)[C@H]3O)c1 [Compound 225] | < 50 | 50 to 249 | < 50 | – | –
24 | O=S(=O)(c1ccc(Oc2ccc(F)cc2)c2c1[C@H](O)C(F)(F)C2)C(F)(F)F [Compound 230] | < 50 | < 50 | < 50 | – | –
25 | O=S(=O)(c1ccc(Oc2cc(F)cc(F)c2)c2c1[C@H](O)CC2)C(F)(F)F [Compound 55] | < 50 | < 50 | < 50 | – | –
26 | O=S(=O)(c1ccc(OCCF)c2c1[C@H](O)C(F)(F)C2)C(F)(F)F [Compound 706] | 50 to 249 | 50 to 249 | 50 to 249 | – | –
27 | COC[C@@H](C)Oc1ccc(S(=O)(=O)C(F)(F)F)c2c1CC(F)(F)[C@H]2O [Compound 659] | 50 to 249 | 50 to 249 | < 50 | – | –
28 | N#Cc1cc(F)cc(Oc2ccc(S(=O)(=O)C(F)(F)F)c3c2CC(F)(F)[C@H]3O)c1 [Compound 185] | < 50 | < 50 | – | < 50 | –

Now from value to molecule, other results behind:

Row | EC50 (786-O-Hif-Luc cells; [2]) [nM] | EC50 (786-O cells) [nM] | IC50 [1, 3] [nM] | IC50 [1, 4] [nM] | Compound | EC50 (786-O-Hif-Luc cells; read-out: Mean Luciferase EC50 (nM)) [nM]
29 | 250 to 1000 | 250 to 1000 | < 50 | – | CS(=O)(=O)c1ccc(OC2CC(F)(F)C2)c2c1[C@H](O)[C@H](F)[C@@H]2F [Compound 577] | –
30 | 50 to 249 | 50 to 249 | < 50 | – | O=S(=O)(c1ccc(OCC2COC2)c2c1[C@H](O)C(F)(F)C2)C(F)(F)F [Compound 713] | –
31 | < 50 | < 50 | < 50 | – | O=S(=O)(c1ccc(Oc2cncc(Cl)c2)c2c1[C@H](O)C(F)(F)C2)C(F)(F)F [Compound 186] | –
32 | < 50 | < 50 | < 50 | – | O=S(=O)(c1ccc(Oc2ccc(F)c(F)c2)c2c1[C@H](O)C(F)(F)C2)C(F)F [Compound 196] | –
33 | < 50 | 50 to 249 | < 50 | – | CCCCOc1ccc(S(=O)(=O)C(F)(F)F)c2c1CC(F)(F)[C@H]2O [Compound 710] | –
34 | 50 to 249 | 50 to 249 | < 50 | – | NC1c2c(ccc(Oc3cc(F)cc(F)c3)c2C(F)F)S(=O)(=O)C1(F)F (stereo not drawn) [Compound 365] | –
35 | < 50 | < 50 | < 50 | – | O=S(=O)(c1ccc(OCCCF)c2c1[C@H](O)C(F)(F)C2)C(F)(F)F [Compound 712] | –
36 | 50 to 249 | 50 to 249 | < 50 | – | CS(=O)(=O)c1ccc(O[C@H]2C[C@H](C#N)C2)c2c1[C@H](O)C(F)(F)[C@@H]2F [Compound 760] | –
37 | 50 to 249 | 250 to 1000 | 50 to 249 | – | N#Cc1cncc(Oc2ccc3c(c2Br)[C@@H](O)C(F)(F)S3(=O)=O)c1 [Compound 424] | –
38 | < 50 | < 50 | – | < 50 | O=S(=O)(c1ccc(Oc2cc(F)cc(Cl)c2)c2c1[C@H](O)C(F)(F)C2)C(F)F [Compound 158] | –
39 | 50 to 249 | 50 to 249 | < 50 | – | O=S(=O)(c1ccc(Oc2cc(F)cc(F)c2)c2c1[C@H](O)CC2)C(F)F [Compound 2] | –
40 | < 50 | < 50 | < 50 | – | O=S(=O)(CF)c1ccc(O[C@H]2C[C@H](F)C2)c2c1[C@H](O)C(F)(F)[C@@H]2F [Compound 742] | –
41 | < 50 | 50 to 249 | < 50 | – | O=S(=O)(c1ccc(OC2CCCC2)c2c1C(O)C(F)(F)C2)C(F)(F)F (stereo not drawn) [Compound 605] | –
42 | 50 to 249 | 50 to 249 | < 50 | – | CS(=O)(=O)c1ccc(O[C@H]2C[C@@H](F)C2)c2c1[C@H](O)C(F)(F)[C@@H]2F [Compound 740] | –
